Where “and” joins values, the source holds several entries; their conditions need not be identical. Equal values may be shown once.
Columns and labels:
Assay type in all cases: cell-based, human
[1] = tested on: TIG‐3 embryonic fibroblasts (fetal lung); test: cell survival (trypan blue exclusion, 5 days), TIG-3; details: for IC50: TIG3, cellular survival, 5 days; for Ratio of survived cells (Drugs treated/Untreated), Average / Ratio of survived cells (Drugs treated/Untreated), single passage points #: TIG-3
Method: (§1) Modified procedures of CTOS culture 16 were described elsewhere 10. […] The culture medium was serum‐free advanced DMEM/F‐12 (GIBCO, Waltham, MA) supplemented with FGF‐2 (10 ng/mL, ReproCell, Yokohama, Japan), penicillin ([…], Wako, Osaka, Japan), streptomycin (0.1 mg/mL,Wako), gentamicin (50 μg/mL, Wako), and fungizone (0.25 μg/mL, GIBCO). DLD‐1 and HCT116 CRC cell lines were purchased from JCRB Cell Bank (Osaka, Japan) and RIKEN BioResource Center (Ibaraki, Japan), respectively. In order to estimate pharmacological side effects against normal tissues, human diploid fibroblasts were purchased (JCRB Cell Bank) as model cells. The origins of the fibroblasts were as follows: OUMS‐36 (embryo), TIG‐3 (fetal lung), TIG‐111 (dermal fibroblasts [DFs] from individual), TIG‐119 (DFs from individual), and TIG‐102 (DFs from individual). Adult DFs were purchased from Kurabo (Osaka, Japan). CRC cell lines and fibroblasts were maintained under supplier‐recommended culture conditions. Since the culture conditions are different between fibroblasts and CTOSs, we need to be cautious about the interpretation of data (i.e., lateral comparison between them). […] Colorectal CTOSs display augmented survival through maintaining epithelial structure with E‐cadherin 16. On the other hand, the establishment of conventional cell lines (adherent culture) are much less efficient because constant cell division and autonomous survival are required for the procedure. When we choose CTOSs instead of cancer cell lines, we lose the equivalent condition (adherent culture) as a trade‐off.
(§2) Each drug's half‐maximal inhibitory concentration (IC50) was calculated based on live cell number ratios (drug treated/untreated × 100%) obtained from serial dilution of drug concentration. The length of drug exposure was 5 days. Each number of live cells was counted automatically by trypan blue exclusion (LUNA automated cell counter, Logos Biosystems, Anyang, South Korea). Cancer spheroids were dispersed with serial treatments (20 min each) of TrypLE™ and Accumax™. Thus, IC50 was determined based on cellular survival, but not on proliferation. We chose the survival index instead of the speed of growth because CTOSs in vitro show very slow proliferation (quiescence), which is one of the hallmarks of CSCs 2. The IC50 values of fibroblasts were accordingly determined based on cellular survival index during quiescence (by contact inhibition). […] To quantify the synergism of two distinct drugs, Combination Index (CI) was calculated 21. A CI value of about 1 (0.90–1.10) was defined as nearly additive and CI values more than (>1.10) and less than (<0.90) were defined as antagonism and synergism, respectively. IC50 and CI were determined using CompuSyn software (ComboSyn, Paramus, NK).

[2] = tested on: CTOS88 colorectal cancer tissue‐originated spheroids; test: cell survival (trypan blue exclusion, 5 days), CTOS88; details: for Ratio of survived cells (Drugs treated/Untreated), #3: passage point #3; for Ratio of survived cells (Drugs treated/Untreated), #4: passage point #4; for Ratio of survived cells (Drugs treated/Untreated), #5: passage point #5; for Ratio of survived cells (Drugs treated/Untreated), #1: passage point #1; for Ratio of survived cells (Drugs treated/Untreated), #6: passage point #6
Text: (§3) All experimental procedures were approved by the animal facility at Dokkyo Medical University (ID: 951) and were described elsewhere 10. The existence of CSCs has been experimentally proven through serial xenotransplantation and tumorigenesis 2, 14. […] These subcutaneous tumors were again subjected to enzymatic dissociation and some of the tumor cells were subcutaneously transplanted into other mice. […] Seven cases (CTOS:40, 42, 68, 71, 76, 86, 88) were used for in vitro experiments.
as §1
(§4) Each drug's half‐maximal inhibitory concentration (IC50) was calculated based on live cell number ratios (drug treated/untreated × 100%) obtained from serial dilution of drug concentration. The length of drug exposure was 5 days. Each number of live cells was counted automatically by trypan blue exclusion (LUNA automated cell counter, Logos Biosystems, Anyang, South Korea). Cancer spheroids were dispersed with serial treatments (20 min each) of TrypLE™ and Accumax™. Thus, IC50 was determined based on cellular survival, but not on proliferation.

[3] = tested on: CTOS71 colorectal cancer tissue‐originated spheroids; test: cell survival (trypan blue exclusion, 5 days), CTOS71; details: for IC50: CTOS71, cellular survival, 5 days; for Ratio of survived cells (Drugs treated/Untreated), Average / Ratio of survived cells (Drugs treated/Untreated), single passage points #: CTOS#71
Text: as §3, §1, §4

[4] = tested on: TIG‐102 dermal fibroblasts; test: cell survival (trypan blue exclusion, 5 days), TIG-102; details: for IC50: TIG102, cellular survival, 5 days; for Ratio of survived cells (Drugs treated/Untreated), Average / Ratio of survived cells (Drugs treated/Untreated), single passage points #: TIG-102
Method: as §1, §2

[5] = calculated from average % survival

With `CC[PH](CC)(CC)[Au][S][C@@H]1O[C@H](COC(C)=O)[C@@H](OC(C)=O)[C@H](OC(C)=O)[C@H]1OC(C)=O` [Aura, Auranofin] as the compound, how does the IC50 [1] read?
The IC50 was 1.96 µM.

What about the “Ratio of survived cells (Drugs treated/Untreated), Average” value ([1]; Aura 1 microM) of the same compound?
Its value is 83.1429%.

What about the “Ratio of survived cells (Drugs treated/Untreated), Average” value ([1]; Aura 2 microM) of the same compound?
The value was 61.4286%.

And the “Ratio of survived cells (Drugs treated/Untreated), Average” value ([1]; Aura 4 microM)?
The value was 9.571%.

What about the “Ratio of survived cells (Drugs treated/Untreated), Average” value ([2]; Aura 1 microM) of the same compound?
The value was 78.3333%.

And the “Ratio of survived cells (Drugs treated/Untreated), #3” value (“Ratio … (Drugs treated/Untreated), #3” below) ([2]; Aura 1 microM)?
Its value is 91%.

What about the “Ratio of survived cells (Drugs treated/Untreated), #4” value (from here on “Ratio … (Drugs treated/Untreated), #4”) ([2]; Aura 1 microM) of the same compound?
The value was 76%.

And the “Ratio of survived cells (Drugs treated/Untreated), #5” value (“Ratio … (Drugs treated/Untreated), #5” below) ([2]; Aura 1 microM)?
Its value is 68%.

What about the “Ratio of survived cells (Drugs treated/Untreated), Average” value ([2]; Aura 2 microM) of the same compound?
The value was 67%.

What about the “Ratio … (Drugs treated/Untreated), #3” value ([2]; Aura 2 microM) of the same compound?
Its value is 72%.

And the “Ratio … (Drugs treated/Untreated), #4” value ([2]; Aura 2 microM)?
Its value is 61%.

What about the “Ratio … (Drugs treated/Untreated), #5” value ([2]; Aura 2 microM) of the same compound?
Its value is 68%.

And the “Ratio of survived cells (Drugs treated/Untreated), Average” value ([2]; Aura 4 microM)?
Its value is 24.3333%.

What about the “Ratio of survived cells (Drugs treated/Untreated), #1” value (from here on “Ratio … (Drugs treated/Untreated), #1”) ([2]; Aura 4 microM) of the same compound?
Its value is 33%.

And the “Ratio … (Drugs treated/Untreated), #3” value ([2]; Aura 4 microM)?
The value was 23%.

What about the “Ratio … (Drugs treated/Untreated), #5” value ([2]; Aura 4 microM) of the same compound?
The value was 17%.

What about the IC50 [2, 5] of the same compound?
The IC50 was 2.34 µM.

What about the IC50 ([2]; cellular survival, 5 days) of the same compound?
The IC50 was 2.34 µM.

What about the IC50 [3] of the same compound?
The IC50 was 2.21 µM.

And the “Ratio of survived cells (Drugs treated/Untreated), Average” value ([3]; Aura 1 microM)?
The value was 70.2%.

And the “Ratio of survived cells (Drugs treated/Untreated), single passage points #” value ([3]; Aura 1 microM)?
Its value is 81% and 77% and 62% and 56% and 75%.

And the “Ratio of survived cells (Drugs treated/Untreated), Average” value ([3]; Aura 2 microM)?
Its value is 55.3333%.

And the “Ratio of survived cells (Drugs treated/Untreated), Average” value ([3]; Aura 4 microM)?
Its value is 33.1429%.

And the IC50 [4]?
The IC50 was 1.09 µM.

What about the “Ratio of survived cells (Drugs treated/Untreated), Average” value ([4]; Aura 1 microM) of the same compound?
The value was 48.5%.

What about the “Ratio of survived cells (Drugs treated/Untreated), single passage points #” value ([4]; Aura 1 microM) of the same compound?
Its value is 44% and 53%.

And the “Ratio of survived cells (Drugs treated/Untreated), Average” value ([4]; Aura 2 microM)?
Its value is 21%.

What about the “Ratio of survived cells (Drugs treated/Untreated), Average” value ([4]; Aura 4 microM) of the same compound?
The value was 0%.

What about the “Ratio of survived cells (Drugs treated/Untreated), single passage points #” value ([4]; Aura 4 microM) of the same compound?
Its value is 0%.

`COc1cc(/C=C/C(=O)N2CCC=CC2=O)cc(OC)c1OC` [Pipe, Piperlongumine] was tested. Which IC50 [1] did it give?
The IC50 was 10.6 µM.

What about the “Ratio of survived cells (Drugs treated/Untreated), Average” value ([1]; Pipe 2.5 microM) of the same compound?
The value was 111.833%.

And the “Ratio of survived cells (Drugs treated/Untreated), single passage points #” value ([1]; Pipe 2.5 microM)?
The value was 107% and 154% and 95% and 81% and 127%.

What about the “Ratio of survived cells (Drugs treated/Untreated), Average” value ([1]; Pipe 5 microM) of the same compound?
Its value is 79.5%.

What about the “Ratio of survived cells (Drugs treated/Untreated), single passage points #” value ([1]; Pipe 5 microM) of the same compound?
The value was 82% and 60% and 112% and 58% and 92% and 73%.

And the “Ratio of survived cells (Drugs treated/Untreated), Average” value ([1]; Pipe 10 microM)?
The value was 64%.

And the “Ratio of survived cells (Drugs treated/Untreated), Average” value ([2]; Pipe 2.5 microM)?
The value was 75.3333%.

And the “Ratio … (Drugs treated/Untreated), #3” value ([2]; Pipe 2.5 microM)?
Its value is 56%.

What about the “Ratio … (Drugs treated/Untreated), #4” value ([2]; Pipe 2.5 microM) of the same compound?
The value was 86%.

What about the “Ratio … (Drugs treated/Untreated), #5” value ([2]; Pipe 2.5 microM) of the same compound?
Its value is 84%.

What about the “Ratio of survived cells (Drugs treated/Untreated), Average” value ([2]; Pipe 5 microM) of the same compound?
The value was 44.8%.

And the “Ratio … (Drugs treated/Untreated), #1” value ([2]; Pipe 5 microM)?
Its value is 44%.

And the “Ratio … (Drugs treated/Untreated), #3” value ([2]; Pipe 5 microM)?
The value was 33%.

And the “Ratio … (Drugs treated/Untreated), #4” value ([2]; Pipe 5 microM)?
Its value is 57%.

And the “Ratio … (Drugs treated/Untreated), #5” value ([2]; Pipe 5 microM)?
Its value is 29%.

What about the “Ratio of survived cells (Drugs treated/Untreated), #6” value ([2]; Pipe 5 microM) of the same compound?
The value was 61%.

What about the “Ratio of survived cells (Drugs treated/Untreated), Average” value ([2]; Pipe 10 microM) of the same compound?
The value was 12.2%.

What about the “Ratio … (Drugs treated/Untreated), #1” value ([2]; Pipe 10 microM) of the same compound?
The value was 19%.

And the “Ratio … (Drugs treated/Untreated), #3” value ([2]; Pipe 10 microM)?
Its value is 4%.

What about the “Ratio … (Drugs treated/Untreated), #4” value ([2]; Pipe 10 microM) of the same compound?
The value was 16%.

And the “Ratio … (Drugs treated/Untreated), #5” value ([2]; Pipe 10 microM)?
The value was 5%.

What about the “Ratio of survived cells (Drugs treated/Untreated), #6” value ([2]; Pipe 10 microM) of the same compound?
Its value is 17%.

What about the IC50 [2, 5] of the same compound?
The IC50 was 4.25 µM.

And the IC50 ([2]; cellular survival, 5 days)?
The IC50 was 4.25 µM.

And the IC50 [3]?
Its IC50 is 6.01 µM.

What about the “Ratio of survived cells (Drugs treated/Untreated), Average” value ([3]; Pipe 2.5 microM) of the same compound?
The value was 80.8%.

What about the “Ratio of survived cells (Drugs treated/Untreated), single passage points #” value ([3]; Pipe 2.5 microM) of the same compound?
Its value is 96% and 59% and 102% and 88%.

What about the “Ratio of survived cells (Drugs treated/Untreated), Average” value ([3]; Pipe 5 microM) of the same compound?
Its value is 60.8%.

And the “Ratio of survived cells (Drugs treated/Untreated), Average” value ([3]; Pipe 10 microM)?
Its value is 27.8%.

And the “Ratio of survived cells (Drugs treated/Untreated), single passage points #” value ([3]; Pipe 10 microM)?
Its value is 21% and 20% and 35% and 27% and 36%.

What about the IC50 [4] of the same compound?
Its IC50 is 7.89 µM.

What about the “Ratio of survived cells (Drugs treated/Untreated), Average” value ([4]; Pipe 2.5 microM) of the same compound?
Its value is 105.667%.

And the “Ratio of survived cells (Drugs treated/Untreated), single passage points #” value ([4]; Pipe 2.5 microM)?
Its value is 83% and 86% and 148%.

And the “Ratio of survived cells (Drugs treated/Untreated), Average” value ([4]; Pipe 5 microM)?
The value was 86.3333%.

And the “Ratio of survived cells (Drugs treated/Untreated), single passage points #” value ([4]; Pipe 5 microM)?
The value was 54% and 100% and 105%.

And the “Ratio of survived cells (Drugs treated/Untreated), Average” value ([4]; Pipe 10 microM)?
Its value is 27.6667%.
